{
  "source": "patent US20230203126A1",
  "about": "“A COMPOSITION COMPRISING S-ARRESTIN PEPTIDES” (WORG PHARMACEUTICALS (HANGZHOU) CO., LTD., priority 2019, published 2023)",
  "molecules": {"B1": {"name": "17JK (peptide)", "peptide": "H-KKKLTFRRDLYFSRVQVYKKK-NH2", "notes": "Synthetic S-Ag derived peptide with KKK added at both ends"}, "B2": {"name": "15N3K (peptide)", "peptide": "H-KKKVIFKKISRDKSVTIYLGKKK-NH2", "notes": "as for B1"}, "B3": {"name": "9K1K (peptide)", "peptide": "H-KKKAFVEQVANVVLKKK-NH2", "notes": "Synthetic S-Ag (S-arrestin) derived peptide with KKK added at both ends"}},
  "data": [
    {"target": "T1, HLA-DR3 (HLA-DRA and DRB1*0301) on CD11c+ dendritic cells of DR3tg mice (human, UniProt P01903 26-254; P79483 30-266)", "T1 construct": "whole, on cells; DR3tg mice express the HLA-DRB1*0301 molecule but not the mouse MHC-II molecule; also called MHC class II; MHC II molecules", "T1 MHC II alpha": "not shown", "T1 MHC II beta": "not shown", "assay": "in vivo MHC class II loading assay, DR3tg mice, read out by IFNy of peptide-specific CD4+ T cells", "settings": "not given", "procedure": "(§1) FIG. 2: Peptide 17JK is correctly loaded on MHC class II in vivo. Response of peptide-specific CD4+ T cells towards peptide loaded in vivo on dendritic cells is shown. HLA-DR3-transgenic mice were injected subcutaneously with 100 µg of 17JK peptide. 2 h post injection, spleens were dissected and CD11c+ cells (dendritic cells) were isolated. These CD11c+ cells were co-cultured with peptide-specific CD4+ cells for 72 h at 37° C. IFNy was measured in the supernatant of these cultures to evaluate the response to peptide by the CD4+ T cells. (*** p<0.001 Mann-Whitney U-test)\nas §1, with “FIG. 3:” for “FIG. 2:”, “Peptide 15N3K” for “Peptide 17JK”, “of 15N3K” for “of 17JK”, “peptide. 2h” for “peptide. 2 h”\nDR3tg or DR2tg mice were injected with 100 µg of peptide in 100 µl PBS subcutaneously (s.c.) in the flank. Control animals received a s.c. injection of 100 µl PBS. After 2 hours, spleens were harvested and single-cell suspensions were prepared. […]", "values": [
      {"molecule": "B1", "binding result": "binds"},
      {"molecule": "B2", "binding result": "binds"}
    ]},
    {"target": "T2, HLA-DR2 (DRA*0101 and DRB1*1501) on CD11c+ dendritic cells of DR2tg mice (human, UniProt P01903 26-254; P01911 30-266)", "T2 construct": "whole, on cells; DR2tg mice express the HLA-DRB1*1501 molecule but not the mouse MHC class II molecule; also called MHC class II; MHC II molecules", "assay": "in vivo MHC class II loading assay, DR2tg mice, read out by IFNy of peptide-specific CD4+ T cells", "settings": "not given", "procedure": "as §1, with “FIG. 1:” for “FIG. 2:”, “Peptide 9K1K” for “Peptide 17JK”, “shown. HLA-DR2-transgenic” for “shown. HLA-DR3-transgenic”, “of 9K1K” for “of 17JK”, “and CD11 c+” for “and CD11c+”, “cells. (* p<0.05” for “cells. (*** p<0.001”\nDR3tg or DR2tg mice were injected with 100 µg of peptide in 100 µl PBS subcutaneously (s.c.) in the flank. Control animals received a s.c. injection of 100 µl PBS. After 2 hours, spleens were harvested and single-cell suspensions were prepared. CD11 c+ cells were positively selected using CD11c microbeads according to the manufacturer’s instructions (Miltenyi Biotec, Bergisch Gladbach, Germany). Average purities of >92% were reached. […] After 72 hours, supernatant of these co-cultures was collected and CD4+ T cell activation was analysed by IFNy ELISA (R&D Systems, Abingdon, UK). In a parallel experiment, CD4+ T cell responses towards peptide added in vitro were assessed to make sure the T cells recognize the peptides presented by the CD11 c+ cells.", "values": [
      {"molecule": "B3", "binding result": "binds"}
    ]},
    {"tested_on": "SAg-specific hybridoma cells with fresh or fixed APC (VAVY) cells, MHCII", "assay": "Antigen processing independent presentation system (APIPS) assay", "format": "cell-based, DR3tg mice", "settings": "10 or 25 µg/ml peptide, IL-2 ELISA after 48 h", "procedure": "FIG. 10: Variants of peptide 15N3K are apitopes. The ability of variants of the 15N3K peptide to behave as apitopes (i.e. bind to an MHCII molecule and be presented to a T cell by an antigen-presenting cell without undergoing antigen processing) was tested using an APIPS assay. DR3tg mice were immunised with SAg and hybridoma’s were generated. 5*10^4 SAg-specific hybridoma cells were cultured with 5*10^4 fresh or fixed commercial APC (VAVY) cells. Cultures were stimulated with 10 or 25 µg/ml of peptide, as indicated in the graph. T cell activation was measured by IL-2 ELISA on supernatants collected after 48 h. The graph represents the mean of duplicate measurements ± SEM.\nApitopes (Antigen Processing-Independent epiTOPES) are capable of binding to an MHCII molecule and stimulating a response from SAg-specific T cells without further antigen processing. Variants of peptide 15N3K (SEQ ID NO: 3) were tested for their ability to bind to an MHCII molecule and be presented to a T cell hybridoma without further antigen processing in an in vitro antigen processing independent presentation system (APIPS) assay. In other words, peptides consisting of parts of peptide 15N3K and peptides with various degrees of sequence identity with peptide 15N3K were tested for their ability to behave as apitopes.\nAll but three of the peptides are apitopes.\nAntigen-specific hybridoma clones were tested for their reactivity to the peptides, presented by fixed or not fixed (fresh) cells (APCs). 5x10^4 cells were cultured with 10 µg/ml and 25 µg/ml peptide and 5x10^4 fixed or fresh APCs. To fix APCs, cells were incubated with 0.5% paraformaldehyde (Merck, Darmstadt, Germany) (pH7) for 5 min at room temperature (RT). The fixation reaction was stopped by adding 0.4 M glycine (Sigma-Aldrich) and washing the cells in RPMI-10% FCS. After 48 h, antigen-induced IL-2 production was measured by ELISA (R&D Systems, Abingdon, UK).", "values": [
      {"molecule": "IFKKISRDKSVTIYLG (H-IFKKISRDKSVTIYLG-NH2) [HIP-15CD, variant of peptide 15N3K]", "Apitope": "Yes"},
      {"molecule": "ISRDKSVTIYLG (H-ISRDKSVTIYLG-NH2) [HIP-15G3, variant of peptide 15N3K]", "Apitope": "No"},
      {"molecule": "KKISRDKSVTIYLG (H-KKISRDKSVTIYLG-NH2) [HIP-15E1, variant of peptide 15N3K]", "Apitope": "Yes"},
      {"molecule": "KKKIFKKISRDKSVTIYLGKKK (H-KKKIFKKISRDKSVTIYLGKKK-NH2) [HIP-15CD-KKK, variant of peptide 15N3K]", "Apitope": "Yes"},
      {"molecule": "KKKISRDKSVTIYLGKKK (H-KKKISRDKSVTIYLGKKK-NH2) [HIP-15G3-KKK, variant of peptide 15N3K]", "Apitope": "Yes"},
      {"molecule": "KKKKKISRDKSVTIYLGKKK (H-KKKKKISRDKSVTIYLGKKK-NH2) [HIP-15E1-KKK, variant of peptide 15N3K]", "Apitope": "Yes"},
      {"molecule": "KKKVIFKKISRDKSVKKK (H-KKKVIFKKISRDKSVKKK-NH2) [HIP-15B3-KKK, variant of peptide 15N3K]", "Apitope": "No"},
      {"molecule": "KKKVIFKKISRDKSVTIKKK (H-KKKVIFKKISRDKSVTIKKK-NH2) [HIP-15B1-KKK, variant of peptide 15N3K]", "Apitope": "Yes"},
      {"molecule": "KKKVIFKKISRDKSVTIYLKKK (H-KKKVIFKKISRDKSVTIYLKKK-NH2) [HIP-15BC-KKK, variant of peptide 15N3K]", "Apitope": "Yes"},
      {"molecule": "MAASGKTSKSEPNHVIFKKISRDKSV TIYLGNRDYIDHVSQV (H-MAASGKTSKSEPNHVIFKKISRDKSVTIYLGNRDYIDHVSQV-NH2) [HIP-115, variant of peptide 15N3K]", "Apitope": "Yes"},
      {"molecule": "VIFKKISRDKSV (H-VIFKKISRDKSV-NH2) [HIP-15B3, variant of peptide 15N3K]", "Apitope": "No"},
      {"molecule": "VIFKKISRDKSVTI (H-VIFKKISRDKSVTI-NH2) [HIP-15B1, variant of peptide 15N3K]", "Apitope": "Yes"},
      {"molecule": "VIFKKISRDKSVTIYL (H-VIFKKISRDKSVTIYL-NH2) [HIP-15BC, variant of peptide 15N3K]", "Apitope": "Yes"}
    ]}
  ]
}
